# According to publication PMC10967822, “Antimicrobial Indole-3-Carboxamido-Polyamine Conjugates Target Bacterial Membranes and Are Antibiotic Potentiators” (Biomolecules, 2024):
# Experiments:
# human red blood cells = experiment: Hemolytic assay; type: cell-based; conditions: 10% hemolytic activity, mean n = 2
# Procedure: Human whole blood was washed three times with three volumes of 0.9% NaCl and then resuspended in the same solution to a concentration of 0.5 × 10^8 cells/mL, as determined by the manual cell count in a Neubauer hemocytometer. The washed cells were then added to the 384-well compound-containing plates for a final volume of 50 μL. After a 10 min shake on a plate shaker, the plates were then incubated for 1 h at 37 °C. After incubation, the plates were centrifuged at 1000× g for 10 min to pellet cells and debris; 25 μL of the supernatant was then transferred to a polystyrene 384-well assay plate. Hemolysis was determined by measuring the supernatant absorbance at […] (OD405). The absorbance was measured using a Tecan M1000 Pro monochromator plate reader. HC10 and HC50 (concentrations at 10% and 50% hemolysis, respectively) were calculated by a curve fitting the inhibition values vs. log (concentration) using a sigmoidal dose–response function with variable fitting values for the top, bottom, and slope.
# A. baumannii ATCC 19606 = experiment: MIC, broth microdilution (CO-ADD), A. baumannii; type: cell-based, Acinetobacter baumannii; conditions: Acinetobacter baumannii, ATCC19606, top dose 32 µg/mL
# P. aeruginosa ATCC 27853 [1] = experiment: MIC, broth dilution, P. aeruginosa; type: cell-based, Pseudomonas aeruginosa; conditions: Pseudomonas aeruginosa, ATCC27853; P. aeruginosa ATCC 27853, 18 h; read-out: MIC Pa
# [2] = Cytotoxicity assay (resazurin); type: cell-based; conditions: human, HEK293 cells, mean n = 2
# E. coli ATCC 25922 [3] = experiment: MIC, broth dilution, E. coli; type: cell-based, Escherichia coli; conditions: Escherichia coli, ATCC25922; E. coli ATCC 25922, 18 h
# C. albicans ATCC 90028 = experiment: Antifungal MIC (CO-ADD), C. albicans; type: cell-based; conditions: Candida albicans, ATCC90028, top dose 32 µg/mL
# Procedure: (§1) For the antifungal assay, fungi strains were cultured for 3 days on YPD agar at 30 °C. A yeast suspension of 1 × 10^6 to 5 × 10^6 CFU/mL was prepared from five colonies. These stock suspensions were diluted with a yeast nitrogen base (YNB) (Becton Dickinson, 233520, New South Wales, Australia) broth to a final concentration of 2.5 × 10^3 CFU/mL. […] The plates were covered and incubated at 35 °C for 36 h without shaking. C. albicans MICs were determined by measuring the absorbance at OD530. For C. neoformans, resazurin was added at a 0.006% final concentration to each well and incubated for a further 3 h before the MICs were determined by measuring the absorbance at OD570–600. […] Fluconazole was used as a positive fungal inhibitor standard for C. albicans and C. neoformans. […] The quality control (QC) of the assays was determined by the antimicrobial controls and the Z′-factor (using positive and negative controls).
# MRSA ATCC 43300 = experiment: MIC, broth microdilution (CO-ADD), MRSA; type: cell-based, methicillin-resistant S. aureus; conditions: Staphylococcus aureus; MRSA ATCC 43300; top dose 32 µg/mL; read-out: MIC MRSA
# S. aureus ATCC 25923 = experiment: MIC, broth dilution, S. aureus; type: cell-based, Staphylococcus aureus; conditions: Staphylococcus aureus, ATCC25923; S. aureus ATCC 25923, 18 h; read-out: MIC Sa
# [4] = tested on: K. pneumoniae ATCC 700603; experiment: MIC, broth microdilution (CO-ADD), K. pneumoniae; conditions: top dose 32 µg/mL
# E. coli ATCC 25922 [5] = experiment: Erythromycin potentiation against E. coli; type: cell-based, Escherichia coli; conditions: erythromycin at 2 µg/mL (2.7 µM); for Erythro/Ec fold-change (intrinsic MIC / combination MIC): E. coli; for Erythro/Ec: concentration required to restore erythromycin activity (combination MIC): mean n = 3
# Text: (§2) These measurements were independently repeated in triplicate.
# P. aeruginosa ATCC 27853 [6] = experiment: Doxycycline potentiation against P. aeruginosa; type: cell-based, Pseudomonas aeruginosa; conditions: doxycycline at 2 µg/mL (4.5 µM); for Dox/Pa fold-change (intrinsic MIC / combination MIC): P. aeruginosa ATCC 27853; for Dox/Pa: concentration required to restore doxycycline activity (combination MIC): P. aeruginosa ATCC 27853, mean n = 3
# Text: as §2
# [7] = tested on: C. neoformans ATCC 208821; experiment: Antifungal MIC (CO-ADD), C. neoformans; type: cell-based; conditions: Cryptococcus neoformans, ATCC208821, top dose 32 µg/mL
# Procedure: as §1
MIC (A. baumannii ATCC 19606),MIC (P. aeruginosa ATCC 27853 [1]),MIC (E. coli ATCC 25922 [3]),MIC (C. albicans ATCC 90028),MIC (MRSA ATCC 43300),MIC (S. aureus ATCC 25923),MIC Kp [4],Erythro/Ec fold-change (intrinsic MIC / combination MIC) (E. coli ATCC 25922 [5]),Erythro/Ec: concentration required to restore erythromycin activity (combination MIC) (E. coli ATCC 25922 [5]),Dox/Pa fold-change (intrinsic MIC / combination MIC) (P. aeruginosa ATCC 27853 [6]),Dox/Pa: concentration required to restore doxycycline activity (combination MIC) (P. aeruginosa ATCC 27853 [6]),MIC [7],SMILES,Hemolysis HC10 (human red blood cells),IC50 at 20 h [2]
> 43 µM,> 268 µM,134 µM,> 43 µM,≤ 0.34 µM,268 µM,>43 µM,4 fold,33.6 µM,> 8 fold,33.6 µM,≤ 0.34 µM,O=C(NCCCNCCCCCCNCCCNC(=O)c1c[nH]c2ccccc12)c1c[nH]c2ccccc12.O=C(O)C(F)(F)F.O=C(O)C(F)(F)F [Compound 12b],>43 µM,> 43 µM
> 35 µM,220 µM,110 µM,35 µM,≤ 0.27 µM,13.6 µM,>35 µM,16 fold,6.82 µM,16 fold,13.6 µM,≤ 0.27 µM,O=C(NCCCNCCCCCCCNCCCNC(=O)c1c[nH]c2ccc(Br)cc12)c1c[nH]c2ccc(Br)cc12 [Compound 13c],>35 µM,> 35 µM
≤ 0.27 µM,107 µM,53.7 µM,≤ 0.27 µM,≤ 0.27 µM,3.36 µM,>34 µM,8 fold,6.72 µM,8 fold,13.4 µM,≤ 0.27 µM,O=C(NCCCNCCCCCCCCNCCCNC(=O)c1c[nH]c2ccc(Br)cc12)c1c[nH]c2ccc(Br)cc12 [Compound 13d],>34 µM,> 34 µM
16.7 µM,104 µM,52.2 µM,4.17 µM,≤ 0.26 µM,3.26 µM,>34 µM,8 fold,6.52 µM,4 fold,26.1 µM,≤ 0.26 µM,O=C(NCCCNCCCCCCCCCCNCCCNC(=O)c1c[nH]c2ccc(Br)cc12)c1c[nH]c2ccc(Br)cc12 [Compound 13e],>33 µM,> 33 µM
2.03 µM,203 µM,> 203 µM,≤ 0.25 µM,≤ 0.25 µM,3.17 µM,≤0.25 µM,> 8 fold,25.3 µM,4 fold,50.7 µM,≤ 0.25 µM,O=C(NCCCNCCCCCCCCCCCCNCCCNC(=O)c1c[nH]c2ccc(Br)cc12)c1c[nH]c2ccc(Br)cc12.O=C(O)C(F)(F)F.O=C(O)C(F)(F)F [Compound 13f],14.2 µM,≤ 0.25 µM
> 37 µM,232 µM,58.1 µM,> 37 µM,≤ 0.29 µM,29 µM,>37 µM,0.5 fold,116 µM,8 fold,29.0 µM,≤ 0.29 µM,COc1ccc2[nH]cc(C(=O)NCCCNCCCCCCCCCCNCCCNC(=O)c3c[nH]c4ccc(OC)cc34)c2c1.O=C(O)C(F)(F)F.O=C(O)C(F)(F)F [Compound 14e],>37 µM,> 37 µM

# The remaining lines, values behind:
SMILES,MIC (A. baumannii ATCC 19606),MIC (P. aeruginosa ATCC 27853 [1]),MIC (E. coli ATCC 25922 [3]),MIC (C. albicans ATCC 90028),MIC (MRSA ATCC 43300),MIC (S. aureus ATCC 25923),MIC Kp [4],Erythro/Ec fold-change (intrinsic MIC / combination MIC) (E. coli ATCC 25922 [5]),Erythro/Ec: concentration required to restore erythromycin activity (combination MIC) (E. coli ATCC 25922 [5]),Dox/Pa fold-change (intrinsic MIC / combination MIC) (P. aeruginosa ATCC 27853 [6]),Dox/Pa: concentration required to restore doxycycline activity (combination MIC) (P. aeruginosa ATCC 27853 [6]),MIC [7],Hemolysis HC10 (human red blood cells),IC50 at 20 h [2]
O=C(NCCCNCCCCCCCNCCCNC(=O)c1c[nH]c2ccccc12)c1c[nH]c2ccccc12.O=C(O)C(F)(F)F.O=C(O)C(F)(F)F [Compound 12c],> 42 µM,> 263 µM,65.9 µM,> 42 µM,≤ 0.33 µM,132 µM,>42 µM,1 fold,65.9 µM,> 4 fold,65.9 µM,≤ 0.33 µM,>42 µM,> 42 µM
O=C(NCCCNCCCCCCCCCCNCCCNC(=O)c1c[nH]c2ccccc12)c1c[nH]c2ccccc12.O=C(O)C(F)(F)F.O=C(O)C(F)(F)F [Compound 12e],> 40 µM,> 250 µM,125 µM,> 40 µM,≤ 0.31 µM,31.2 µM,>40 µM,2 fold,62.4 µM,> 4 fold,62.4 µM,≤ 0.31 µM,>40 µM,> 40 µM
O=C(NCCCNCCCCCCCCCCCCNCCCNC(=O)c1c[nH]c2ccccc12)c1c[nH]c2ccccc12.O=C(O)C(F)(F)F.O=C(O)C(F)(F)F [Compound 12f],4.82 µM,121 µM,15.1 µM,≤ 0.3 µM,≤ 0.3 µM,3.77 µM,>39 µM,2 fold,7.54 µM,8 fold,15.1 µM,≤ 0.3 µM,>39 µM,> 39 µM
COc1ccc2[nH]cc(C(=O)NCCCNCCCCCCNCCCNC(=O)c3c[nH]c4ccc(OC)cc34)c2c1 [Compound 14b],> 40 µM,> 248 µM,248 µM,> 40 µM,≤ 0.31 µM,248 µM,>40 µM,4 fold,62.1 µM,> 8 fold,31.1 µM,≤ 0.31 µM,>40 µM,> 40 µM
COc1ccc2[nH]cc(C(=O)NCCCNCCCCCCCCNCCCNC(=O)c3c[nH]c4ccc(OC)cc34)c2c1 [Compound 14d],> 38 µM,> 240 µM,120 µM,> 38 µM,19.2 µM,60 µM,>38 µM,0.5 fold,240 µM,> 8 fold,30.0 µM,≤ 0.3 µM,>38 µM,> 38 µM
